# According to patent US20220064141A1, “BENZOPYRIDONE HETEROCYCLIC COMPOUND AND USE THEREOF” (BrightGene Bio-Medical Technology Co., Ltd., priority 2019, published 2022):
# How the values were obtained:
# [1] = tested on: MIAPaCa-2 human-derived pancreatic cancer cells; test: In-vivo pharmacodynamic experiment, MIAPaCa-2 subcutaneous xenograft in BALB/c nude mice; conditions: for TGI (%) / TIC / Tumor volumes (mm^3) (Day 23): Day 23; for Tumor volumes (mm^3) (Day 0): baseline
# Excerpt: Effect Example 4: In-Vivo Pharmacodynamic Experiment
# Purpose of the experiment: To evaluate the anti-tumor effect of the test drug in female BALB/c nude mice model subcutaneously xenografted with MIAPaCa-2 human-derived pancreatic cancer cells.
# Experimental operation: BALB/c nude mice, female, 6- to 8-weeks old, weighing about 17.6 g to 21.1 g. Each mouse was subcutaneously inoculated with 5×10^6 MIAPaCa-2 cells (with Matrigel; the volume ratio was 1:1) in the right flank. The administration was initiated when the average tumor volume reached about 100 cubic millimeters. The test compounds were orally administered daily by intragastric injection (6 mice in each group) for a total of 16 or 23 days. Tumor volumes were measured three times a week. The volume was measured in cubic millimeters and calculated by the following formula: tumor volume (mm^3)=½×(a×b^2) (where a represented the long diameter and b represented the short diameter). The anti-tumor efficacy of the compound was evaluated by TGI (%).The calculation formula was as follows: TGI %=(1−T/C)×100% (T and C were the relative tumor volumes (RTV) of a mouse in the treatment group and a mouse in the control group at a specific time point), respectively. Safety was evaluated according to the changes of the body weight of the animals and animal deaths.
# [2] = tested on: HCT116 human colon cancer cells with high expression of KRAS G13D; test: Cell Titer-Glo cell viability, HCT116 cells (72 h); format: cell-based; conditions: HCT-116
# Excerpt: Effect Example 2: Pharmacodynamic Assay 2 (Determination of the efficacy of the compounds of the present disclosure on HCT116 human colon cancer cells with high expression of KRAS G13D and A549 human non-small cell lung cancer cells with high expression of KRAS G12S)
# The following method was used to determine the effects of the compounds of the present disclosure on tumor cell proliferation.
# For KRAS G13D subtype, HCT116 human colon cancer cell was used. For KRAS G12S subtype, A549 human non-small cell lung cancer cell was used. The efficacy of the compounds in inhibiting cancer cell viability was determined. HCT116 cells or A549 cells were cultured in a DMEM medium containing 10% fetal bovine serum, 100 U penicillin and […] streptomycin. The cells were cultured in an incubator with 5% CO2 at 37° C. Cancer cell viability was evaluated by determining the content of ATP with Cell Titer-Glo® kit (Luminescent Cell Viability Assay kit, please refer to the manufacturer's instructions for use) and evaluating the inhibition of cell growth.
# The experimental method was proceeded in accordance with the steps in the instructions for the kit, and was described briefly as follows. The test compounds were first dissolved in DMSO to prepare stock solutions, and then the stock solutions were subjected to gradient dilution with the culture media of the corresponding cells, thereby preparing test samples. The final concentrations of the compounds were in the range of 30 μM to 0.01 nM. Tumor cells in logarithmic growth phase were seeded into a 96-well cell culture plate at an appropriate density. After the cell culture plate was left overnight in an incubator with 5% CO2 at 37° C., the test compound samples were added thereto and then the cells were further cultured for 72 hours. After the incubation was complete, an appropriate volume of Cell Titer-Glo® reagent was added into each well, and the cells were incubated at 37° C. for 1 to 4 hours. Then, the […] was read on a microplate reader. The percentage inhibition rates of the compounds at each concentration point were calculated by comparing the absorbance values of the sample wells with that of the control group (0.3% DMSO), and then non-linear regression analysis of the concentration of the compound vs inhibition rate was performed by using GraphPad Prism 5 software, thereby obtaining IC50 values indicating the inhibitory effects of the compounds on cell proliferation.
# [3] = Pharmacokinetic experiment in male CD-1 mice (IV and PO); format: in vivo
# Experimental: Effect Example 3: Pharmacokinetic Experiment
# (1) Compound I-2-2 of the present disclosure prepared in the above Example was used to be formulated into a clear solution (0.3 mg/mL) (2% DMSO+30% PEG 300+2% Tween 80+66% H2O) as a drug for oral administration; and was used to be formulated into a clear solution (0.2 mg/mL) (2% DMSO+30% PEG 300+2% Tween 80+66% H2O) as a drug for intravenous administration.
# (2) Male CD-1 mice (three mice in each group, weighing 27 g to 28 g) were provided by Shanghai Slack Laboratory Animal Co., Ltd. The test mice were given an environmental accommodation period of 2 to 4 days before the experiment. The mice were fasted for 8 to 12 hours before administration, and they were provided access to water (2 hours after administration) and food (4 hours after administration).
# (3) 12 hours after the mice were fasted but had free access to water, blank plasma at time 0 was taken.
# (4) The mice in step 1) were taken; and they were orally (PO) administered 3 mg/kg of the compound to be tested, or intravenously (IV) administered 1 mg/kg of the compound to be tested.
# (5) At 5 min, 15 min, 30 min, 1 h, 2 h, 4 h, 8 h, 10 h, and 24 h after oral administration, blood was successively taken from the fundus oculi venous plexus and placed in EP tubes with heparin. After centrifugation at 8000 rpm/min for 5 min, the plasma in upper layer was collected and frozen at −20° C., waiting for LC-MS/MS analysis.
# (6) WinNonlin software was used to calculate the pharmacokinetic parameters based on the blood concentration-time data obtained in […]).
# [4] = oral daily 30 mg/kg (Day 0 to Day 9) + 15 mg/kg (Day 10 to Day 16)
# [5] = oral daily 100 mg/kg (Day 0 to Day 9) + 50 mg/kg (Day 10 to Day 16) + 100 mg (Day 17 to Day 23)
smiles,measurement,setting,value
"C=CC(=O)N1CCN(c2c(C#N)c(=O)n(-c3ccccc3C(C)C)c3cc(-c4c(C)ccc5[nH]ncc45)c(Cl)cc23)[C@@H](C)C1 (single isomer, unassigned) [Compound I-2-2]",TGI (%),[1]; [4],36.25%
same,TIC,[1]; [4],63.75
same,Tumor volumes (mm^3) (Day 23),[1]; [4],438.75 mm^3
same,TGI (%),[1]; [5],85.02%
same,TIC,[1]; [5],14.98
same,Tumor volumes (mm^3) (Day 23),[1]; [5],179.60 mm^3
same,Tumor volumes (mm^3) (Day 0),[1]; [4],100.25 mm^3
same,Tumor volumes (mm^3) (Day 0),[1]; [5],100.06 mm^3
same,IC50,[2],> 3000 nM
same,F,[3]; PO 3 mg/kg,18.9%
same,AUC,"[3]; mouse, plasma, IV 1 mg/kg",867 ng·h/mL
same,Vd,"[3]; mouse, plasma, IV 1 mg/kg",1.17 L/kg
same,clearance,"[3]; mouse, plasma, IV 1 mg/kg",16.7 mL/min/kg
same,half-life,"[3]; mouse, plasma, IV 1 mg/kg",43.1 min
same,AUC,"[3]; mouse, plasma, PO 3 mg/kg",479 ng·h/mL
same,Cmax,"[3]; mouse, plasma, PO 3 mg/kg",220 ng/mL
same,Tmax,"[3]; mouse, plasma, PO 3 mg/kg",60 min
